Experimental data published in patent US11084795B2, “CFTR regulators and methods of use thereof” (The Regents of the University of California, priority 2015, dated 2021).
Values after ≈ are worked out from the molar mass of the structure shown. Values joined by “and” are separate entries in the source; they are usually repeats but may differ in a detail not shown here. Equal entries are not always repeated. “Also recorded” adds a separate entry of the source.

Legend:
[1] = biological target: T1, ΔF508-CFTR (Homo sapiens, UniProt P13569, DEL508-508); assay: Short-circuit current in FRT cells expressing ΔF508-CFTR corrected with VX-809; assay type: cell-based; conditions: after overnight incubation with a corrector
T1 construct: expressed in transfected cells; host or cells: Fischer rat thyroid (FRT) cells
Experimental: FIGS. 9A-9E. Characterization of CFTR activation by CFTRact-J027. Short-circuit current measured in FRT cells expressing human wild-type CFTR (FIG. 9A) and ΔF508-CFTR (FIG. 9C) showing responses to indicated concentrations of forskolin (fsk), CFTRact-J027, and VX-770. The ΔF508-CFTR-expressing FRT cells were corrected with 3 μM VX-809 at 37° C. for 24 h before measurement. CFTRinh-172 (Inh-172, 10 μM) was added where indicated. FIG. 9B. CFTRact-J027 concentration-dependent activation of wild-type CFTR Cl^− current (S.E.; n=3 cultures). FIG. 9D. Short-circuit current in mouse colon showing responses to indicated concentrations of forskolin (fsk), CFTRact-J027, and CFTRinh-172. FIG. 9E. Assay of cAMP concentration in FRT cells measured following 10-min incubation with indicated concentrations of forskolin and 5 μM CFTRact-J027. Positive controls included forskolin (100 nM and 20 μM), and forskolin plus 3-isobutyl-1-methylxanthine (IBMX, 100 μM) (mean±SE, n=4-8).

[2] = In vitro metabolic stability in human liver microsomes; assay type: in vitro ADME
Experimental: To study gastric acid stability CFTRact-J027 (10 μM) was dissolved in simulated gastric fluid (0.2 NaCl, 0.7% HCl, pH 2) and incubated for 3 h at 37° C. To study in vitro metabolic stability CFTRact-J027 (5 μM) was incubated for specified times at 37° C. with human liver microsomes (1 mg protein/ml; Sigma-Aldrich) in potassium phosphate buffer (100 mM) containing 1 mM NADPH. After specified incubation periods the mixtures were chilled on ice, and 0.5 ml of ice-cold ethyl acetate was added. Samples were centrifuged for 15 min at 3000 rpm, the supernatants evaporated to dryness, and the residues were dissolved in 100 μL mobile phase (acetonitrile:water, 3:1) and assayed by liquid chromatography mass spectrometry (LC/MS). The solvent system consisted of a linear gradient from 5 to 95% acetonitrile over 16 min (0.2 ml/min flow). Mass spectra were acquired on a mass spectrometer (Waters 2695 and Micromass ZQ, Milford, Mass.) using electrospray (+) ionization, mass ranging from 100 to 1500 Da, cone voltage 40 V.

[3] = 7-day oral administration toxicity study in mice; assay type: in vivo, mouse
Text: Chronic administration and toxicity studies.

[4] = Ocular toxicity after chronic topical dosing (slit-lamp, lissamine green staining); assay type: in vivo; conditions: chronically treated mice
Experimental: (§1) To assess corneal epithelial disruption, 5 μL of lissamine green (LG) dye (1%) was applied to the ocular surface of isofluorane-anesthetized mice. Photographs of the eye were taken using a Nikon Digital camera adapted to an Olympus Zoom Stereo Microscope (Olympus, Center Valley, Pa., USA). Each corneal quadrant was scored on a 3-point scale by one blinded, trained observer, with the extent of staining in each quadrant classified as: 0, no staining; 1, sporadic (involving <25% of the total surface) staining; grade 2, diffuse punctate staining (25-75%); and grade 3, coalesced punctate staining (>75%). The total grade is reported as the sum of scores from all four quadrants, ranging from 0 to 12.
as §1, with “Lissamine green staining. To” for “To”, “(≥75%).” for “(>75%).”

[5] = Compound accumulation in systemic tissues after 14 days topical dosing; assay type: in vivo, mouse; conditions: two weeks of three times per day topical dosing
[6] = Solubility; assay type: physicochemical; conditions: read-out: solubility limit
[7] = biological target: human wildtype CFTR (Homo sapiens, UniProt P13569); assay: Short-circuit current (Isc) in FRT cells expressing human wild-type CFTR
[8] = 10 mg/kg orally once per day, 7 days, mean

Chain of human wildtype CFTR (P13569 whole entry): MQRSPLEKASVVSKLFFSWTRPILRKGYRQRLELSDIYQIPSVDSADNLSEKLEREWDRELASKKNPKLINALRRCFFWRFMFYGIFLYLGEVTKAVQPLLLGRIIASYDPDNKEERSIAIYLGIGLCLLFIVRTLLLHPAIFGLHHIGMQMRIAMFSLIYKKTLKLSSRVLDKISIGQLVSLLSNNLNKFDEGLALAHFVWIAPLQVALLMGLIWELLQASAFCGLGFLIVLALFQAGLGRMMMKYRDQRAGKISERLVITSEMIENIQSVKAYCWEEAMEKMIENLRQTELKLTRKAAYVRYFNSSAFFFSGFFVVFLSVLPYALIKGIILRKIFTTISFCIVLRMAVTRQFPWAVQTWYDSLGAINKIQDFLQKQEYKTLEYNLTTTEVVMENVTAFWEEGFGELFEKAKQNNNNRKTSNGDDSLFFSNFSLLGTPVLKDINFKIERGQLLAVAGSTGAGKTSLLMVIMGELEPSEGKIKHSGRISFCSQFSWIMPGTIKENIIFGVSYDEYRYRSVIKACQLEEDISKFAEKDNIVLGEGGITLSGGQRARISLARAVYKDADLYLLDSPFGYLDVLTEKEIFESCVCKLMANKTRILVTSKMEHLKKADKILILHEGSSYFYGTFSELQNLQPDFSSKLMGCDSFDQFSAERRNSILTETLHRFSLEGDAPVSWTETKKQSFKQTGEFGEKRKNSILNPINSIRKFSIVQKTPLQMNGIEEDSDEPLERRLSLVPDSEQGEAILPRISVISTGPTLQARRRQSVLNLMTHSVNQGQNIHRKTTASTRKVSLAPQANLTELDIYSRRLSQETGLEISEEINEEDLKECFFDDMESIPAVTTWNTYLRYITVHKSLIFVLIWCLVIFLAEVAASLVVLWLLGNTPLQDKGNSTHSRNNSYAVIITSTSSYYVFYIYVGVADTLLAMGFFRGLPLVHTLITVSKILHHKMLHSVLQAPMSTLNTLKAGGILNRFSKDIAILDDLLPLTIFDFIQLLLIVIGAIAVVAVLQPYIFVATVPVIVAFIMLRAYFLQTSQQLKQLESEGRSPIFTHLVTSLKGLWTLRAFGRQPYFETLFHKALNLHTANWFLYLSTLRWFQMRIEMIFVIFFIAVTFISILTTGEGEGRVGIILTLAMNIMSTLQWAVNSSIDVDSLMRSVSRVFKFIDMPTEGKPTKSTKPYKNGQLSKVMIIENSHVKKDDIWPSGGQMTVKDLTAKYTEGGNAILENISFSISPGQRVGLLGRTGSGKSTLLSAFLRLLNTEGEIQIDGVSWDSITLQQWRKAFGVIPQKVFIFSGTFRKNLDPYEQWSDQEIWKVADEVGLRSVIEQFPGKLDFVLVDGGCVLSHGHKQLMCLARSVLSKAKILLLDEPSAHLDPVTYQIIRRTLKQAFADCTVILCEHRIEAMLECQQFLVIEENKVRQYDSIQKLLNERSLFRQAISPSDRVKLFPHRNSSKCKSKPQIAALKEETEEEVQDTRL
T1 sequence (P13569 with tags, fused parts or gaps DEL508-508): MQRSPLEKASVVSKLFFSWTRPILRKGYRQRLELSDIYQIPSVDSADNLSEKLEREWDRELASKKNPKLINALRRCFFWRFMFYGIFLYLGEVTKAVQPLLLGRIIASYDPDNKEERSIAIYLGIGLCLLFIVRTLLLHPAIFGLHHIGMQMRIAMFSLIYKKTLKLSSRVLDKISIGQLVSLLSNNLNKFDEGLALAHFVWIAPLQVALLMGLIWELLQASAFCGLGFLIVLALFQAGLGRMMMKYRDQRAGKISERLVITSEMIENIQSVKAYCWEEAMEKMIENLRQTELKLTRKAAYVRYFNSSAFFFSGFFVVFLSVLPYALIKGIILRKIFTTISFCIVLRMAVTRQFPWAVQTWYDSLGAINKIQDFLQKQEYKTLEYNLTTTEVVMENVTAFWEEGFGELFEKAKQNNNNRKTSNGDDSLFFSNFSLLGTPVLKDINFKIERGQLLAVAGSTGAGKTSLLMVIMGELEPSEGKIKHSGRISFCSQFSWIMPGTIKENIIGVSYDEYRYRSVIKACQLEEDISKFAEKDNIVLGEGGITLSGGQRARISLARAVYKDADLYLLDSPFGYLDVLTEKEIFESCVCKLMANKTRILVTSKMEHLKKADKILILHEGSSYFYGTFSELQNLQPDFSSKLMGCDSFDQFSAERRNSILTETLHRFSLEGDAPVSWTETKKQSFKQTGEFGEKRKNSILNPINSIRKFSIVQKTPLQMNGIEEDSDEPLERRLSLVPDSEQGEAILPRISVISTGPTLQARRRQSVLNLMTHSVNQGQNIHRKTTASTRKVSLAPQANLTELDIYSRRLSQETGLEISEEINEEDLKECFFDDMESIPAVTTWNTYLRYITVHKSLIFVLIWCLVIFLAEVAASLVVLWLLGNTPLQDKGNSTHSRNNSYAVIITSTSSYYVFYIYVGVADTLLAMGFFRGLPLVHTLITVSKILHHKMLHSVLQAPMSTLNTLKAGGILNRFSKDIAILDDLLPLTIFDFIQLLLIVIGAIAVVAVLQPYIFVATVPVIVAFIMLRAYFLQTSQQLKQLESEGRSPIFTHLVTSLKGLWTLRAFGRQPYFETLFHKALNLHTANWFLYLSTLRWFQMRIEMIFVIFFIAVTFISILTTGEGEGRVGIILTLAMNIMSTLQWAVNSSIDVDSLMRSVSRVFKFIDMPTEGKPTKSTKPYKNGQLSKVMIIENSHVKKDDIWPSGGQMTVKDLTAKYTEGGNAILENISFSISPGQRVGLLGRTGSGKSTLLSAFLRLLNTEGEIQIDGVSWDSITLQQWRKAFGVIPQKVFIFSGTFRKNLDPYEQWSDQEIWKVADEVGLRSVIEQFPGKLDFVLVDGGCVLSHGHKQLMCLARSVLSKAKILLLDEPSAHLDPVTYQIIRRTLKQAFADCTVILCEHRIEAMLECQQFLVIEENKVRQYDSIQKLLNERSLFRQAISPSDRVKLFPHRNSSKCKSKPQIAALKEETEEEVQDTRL

## Nc1ccc([N+](=O)[O-])cc1-c1nc2ccccc2n(Cc2ccccc2)c1=O [CFTRact-J027, 3-(2-amino-5-nitrophenyl)-1-benzylquinoxalin-2(1H)-one]
[1]
  potentiation of ΔF508-CFTR: substantially less potent than ivacaftor; also recorded: only a weak potentiator
[2]; human hepatic microsomes
  compound remaining at 60 min: 34%
[2]; human, liver microsomes, 5 μM, NADPH, read-out: elimination half-life in human hepatic microsomes
  half-life at 5 μM: ~35 min
[3]; 10 mg/kg oral
  toxicity after chronic administration: without apparent toxicity
[3]; [8]
  ALP: 53 U/L
  ALT: 44 U/L
  AST: 105 U/L
  Albumin: 2.9 g/dL
  BUN: 18.4 mg/dL
  Bicarbonate: 16 mmol/L
  CK: 312 U/L
  Calcium: 8.5 mg/dL
  Chloride: 115 mmol/L
  Cholesterol: 121 mg/dL
  Creatinine: 0.2 mg/dL
  Globulin: 2.2 g/dL
  Glucose: 164 mg/dL
  Hemoglobin: 12.8 g/dL
  Leukocytes: 1.9 ± 10^3/μL
  Phosphorus: 6.8 mg/dL
  Potassium: 4.4 mmol/L
  Sodium: 151 mmol/L
  Thrombocytes: 900 ± 10^3/μL
  Total bilirubin: 0.1 mg/dL
  Total protein: 5.2 g/dL
[3]; 7-day treated mice
  lung water content: normal lung water content
  major serum chemistry and blood parameters: did not affect the major serum chemistry and blood parameters
[3]; 7-day treated mice, 10 mg/kg oral
  body weight and airway/lung fluid accumulation: nor did it change body weight or produce airway/lung fluid accumulation
[4]
  LG staining of cornea and conjunctiva: no corneal or conjunctival epithelial disruption
[4]; topical three times daily, two weeks
  ocular toxicity (slit-lamp evaluation): no signs of ocular toxicity
[5]
  amount in mouse blood, brain, liver and kidney (limit of detection): < 700 fmol
[6]
  solubility: ~20 µM (≈ 7.45 µg/mL)
[7]; 3 μM
  CFTR activation at 3 μM: nearly full activation
[7]; EC50 for CFTR activation, FRT cells, wild-type CFTR, short-circuit current
  EC50: ~0.2 µM and 0.2 µM
[7]; forskolin produced little or no further increase in current
  extent of CFTR activation (Isc): fully activated CFTR
